Test system: wheat rust fungi (Puccinia recondita)
Experiment: Test Example 13 / Comparative Test Example 1: wheat rust, foliar spray
Assay type: in vivo
Settings: wheat (cv Shirogane), 12.5 ppm foliar spray, inoculated after 5 days
Experimental: A plastic pot was filled with soil and thereto wheat (cv; Shirogane) seeds were sown and the plants were grown in a greenhouse for 9 days. Any of the present compounds 1, 2, 3, 5, 6, 7, 8, 9, 10, 12, 13, 14, 15, 18, 19, 20, 21, 26, 27 and 28 each of which was made to a formulation according to the similar method to that of Formulation Example 6, was adjusted with water so as to be 12.5 ppm, and the adjusted solutions were sprayed to foliar parts so as to adhere adequately on the leaves of the above-mentioned wheat. After spraying the adjusted solutions, the plants were air-dried and were then cultivated at 20° C. under lighting for 5 days. The spores of wheat rust fungi (Puccinia recondita) were sprinkling-inoculated. After the inoculation, the plants were placed under a dark and humid condition at 23° C. for 1 day and were then cultivated at 20° C. under lighting for 8 days, and a lesion area was observed.
A plastic pot was filled with soils and thereto was seeded wheat (cv; Shirogane) and the plants were grown in a greenhouse for 9 days. 1-(2-{[2-methyl-4-(1-methyl-1H-pyrazol-3-yl)phenoxy]methyl}-3-methylphenyl)-4-m ethyl-4,5-dihydrotetrazole-5-one which was made to a formulation according to the similar method to that of Formulation Example 6 was adjusted with water so as to be 12.5 ppm. […]

Cc1cc(-c2ccn(C)n2)ccc1OCc1c(C)cccc1-n1nnn(C)c1=O [1-(2-{[2-methyl-4-(1-methyl-1H-pyrazol-3-yl)phenoxy]methyl}-3-methylphenyl)-4-m ethyl-4,5-dihydrotetrazole-5-one]
lesion area compared to the lesion area in untreated plants: ≥ 70%
